Assay results taken from patent publication US20250195521A1 (Revolution Medicines, Inc., priority 2020, published 2025).

Tests used:
[1] = tested on: NCI-H358 cells (K-Ras G12C); test: CellTiter-Glo cell viability, NCI-H358; type: cell-based, human; details: Homo sapiens, NCI-H358, 120 h, K-Ras G12C, 5-day treatment; read-out: H358 Cell Viability IC50
Description: Note—The following protocol describes a procedure for monitoring cell viability of K-Ras mutant cancer cell lines in response to a compound of the invention. Other RAS isoforms may be employed, though the number of cells to be seeded will vary based on cell line used.
Test compounds (132.5 nl) were directly dispensed into the assay plates containing cells. […] On day 5, assay plates and their contents were equilibrated to room temperature for approximately 30 minutes. […] Luminescence was measured using the PerkinElmer Enspire. Data were normalized by the following: (Sample signal/Avg. DMSO)*100. The data were fit using a four-parameter logistic fit.

[2] = tested on: Capan-1 cells (K-Ras G12V); test: CellTiter-Glo cell viability, Capan-1; type: cell-based, human; details: Homo sapiens, CAPAN-1, 120 h, K-Ras G12V, 5-day treatment; read-out: Capan-1 Cell Viability IC50
Summary of the method: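 Viability is read as luminescence after five days of compound exposure, with plates first equilibrated to room temperature for roughly 30 minutes. Each signal is expressed as a percentage of the mean DMSO control, and curves are fitted by four-parameter logistic regression.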

[3] = tested on: K-Ras G12C (NCI-H358 cells); test: Potency assay: pERK in NCI-H358 cells; type: cell-based, human; details: Homo sapiens; NCI-H358 cells, 4 hours; read-out: pERK EC50 (H358 KRAS G12C)
Summary of the method: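 Cells plated the day before were exposed for 4 h at 37° C, 5% CO2 to a 10-point, 3-fold DMSO dilution series (10 mM top stock), in duplicate. Phospho-ERK was read by AlphaLISA SureFire Ultra or by In-Cell Western with DRAQ5 DNA stain, and IC50 came from a 4-parameter sigmoidal fit.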

[4] = molecular target: KRAS G13D (Homo sapiens (Human), UniProt P01116+P62937, G13D); test: Ras-Raf disruption/FRET/MOA assay (BRAF RBD, Cyclophilin A); type: biochemical; details: read-out: KRAS G13D FRET data IC50
Summary of the method: (§1)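 First, 25 μM Cyclophilin A, 12.5 nM His6-Ras-GMPPNP and 50 nM GST-BRAF RBD are mixed with diluted compound at pH 7.3. Next, 3 h at 25° C. Then 10 nM anti-His Eu-W1024 plus 50 nM anti-GST allophycocyanin for 1.5 h before TR-FRET reading.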

[5] = molecular target: KRAS G12D (Homo sapiens (Human), UniProt P01116+P62937, G12D); test: as above; type: biochemical; details: read-out: KRAS G12D FRET IC50
Summary of the method: as §1

[6] = molecular target: KRAS G12C (Homo sapiens (Human), UniProt P01116+P62937, G12C); test: as above; type: biochemical; details: read-out: KRAS G12C FRET IC50
Summary of the method: as §1

[7] = molecular target: KRAS WT (Homo sapiens (Human), UniProt P01116+P62937); test: as above; type: biochemical; details: read-out: KRAS WT FRET data IC50
Summary of the method: as §1

[8] = molecular target: KRAS G12V (Homo sapiens (Human), UniProt P01116+P62937, G12V); test: as above; type: biochemical; details: read-out: KRAS G12V FRET IC50
Summary of the method: as §1

[9] = molecular target: KRAS G13C (Homo sapiens (Human), UniProt P01116+P62937, G13C); test: as above; type: biochemical; details: read-out: KRAS G13C FRET IC50
Summary of the method: as §1

[10] = molecular target: NRAS G12C (Homo sapiens (Human), UniProt P01111+P62937, G12C); test: as above; type: biochemical; details: read-out: NRAS G12C FRET data IC50
Summary of the method: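 Ras-GMPPNP (12.5 nM), BRAF RBD (50 nM) and 25 μM Cyclophilin A were incubated with compound for 3 h at 25° C, then detected 1.5 h with anti-His Eu and anti-GST APC; IC50 values follow from the reduced TR-FRET ratio.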

[11] = molecular target: KRAS G12S (Homo sapiens (Human), UniProt P01116+P62937, G12S); test: as above; type: biochemical; details: read-out: KRAS G12S FRET IC50
Summary of the method: as §1

Sequence of KRAS G12D (P01116 other isoform, or with tags, fused parts or gaps G12D): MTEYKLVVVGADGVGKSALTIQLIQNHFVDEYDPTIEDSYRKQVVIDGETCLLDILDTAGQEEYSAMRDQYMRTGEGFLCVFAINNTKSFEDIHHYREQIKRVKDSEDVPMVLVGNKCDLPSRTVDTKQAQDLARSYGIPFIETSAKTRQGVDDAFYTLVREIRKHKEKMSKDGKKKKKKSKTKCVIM
Sequence of KRAS G12D (P62937 whole entry): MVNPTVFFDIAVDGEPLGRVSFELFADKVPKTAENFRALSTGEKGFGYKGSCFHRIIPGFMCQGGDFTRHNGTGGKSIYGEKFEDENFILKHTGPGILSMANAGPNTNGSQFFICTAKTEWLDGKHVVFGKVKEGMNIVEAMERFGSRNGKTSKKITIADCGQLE
Sequence of KRAS WT (P01116 other isoform, or with tags, fused parts or gaps): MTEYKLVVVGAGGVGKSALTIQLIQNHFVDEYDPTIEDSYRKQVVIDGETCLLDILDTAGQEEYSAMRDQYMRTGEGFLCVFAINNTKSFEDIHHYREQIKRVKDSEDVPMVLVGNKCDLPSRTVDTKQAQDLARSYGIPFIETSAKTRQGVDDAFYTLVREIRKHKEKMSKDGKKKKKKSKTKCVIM
Sequence of KRAS WT (P62937 whole entry): as the sequence (P62937 whole entry) above
Sequence of NRAS G12C (P01111 whole entry G12C): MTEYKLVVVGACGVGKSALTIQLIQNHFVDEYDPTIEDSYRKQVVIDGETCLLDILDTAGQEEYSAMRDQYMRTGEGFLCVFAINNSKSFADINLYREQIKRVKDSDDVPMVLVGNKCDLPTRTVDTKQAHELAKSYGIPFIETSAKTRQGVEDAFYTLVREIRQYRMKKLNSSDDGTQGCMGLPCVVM
Sequence of NRAS G12C (P62937 whole entry): as the sequence (P62937 whole entry) above
Sequence of KRAS G13C (P01116 other isoform, or with tags, fused parts or gaps G13C): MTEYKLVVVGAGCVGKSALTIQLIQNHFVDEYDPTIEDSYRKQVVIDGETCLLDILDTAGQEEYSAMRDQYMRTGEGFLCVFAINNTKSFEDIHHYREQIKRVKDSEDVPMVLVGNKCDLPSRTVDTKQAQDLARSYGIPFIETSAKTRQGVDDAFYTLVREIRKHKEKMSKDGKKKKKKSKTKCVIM
Sequence of KRAS G13C (P62937 whole entry): as the sequence (P62937 whole entry) above
Sequence of KRAS G12C (P01116-2 other isoform, or with tags, fused parts or gaps G12C): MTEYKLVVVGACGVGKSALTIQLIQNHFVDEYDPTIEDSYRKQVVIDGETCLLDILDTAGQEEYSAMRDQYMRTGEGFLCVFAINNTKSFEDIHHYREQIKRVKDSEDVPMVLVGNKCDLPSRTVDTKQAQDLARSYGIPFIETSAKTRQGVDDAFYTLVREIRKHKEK
Sequence of KRAS G12C (P62937 whole entry): as the sequence (P62937 whole entry) above
Sequence of KRAS G12S (P01116 other isoform, or with tags, fused parts or gaps G12S): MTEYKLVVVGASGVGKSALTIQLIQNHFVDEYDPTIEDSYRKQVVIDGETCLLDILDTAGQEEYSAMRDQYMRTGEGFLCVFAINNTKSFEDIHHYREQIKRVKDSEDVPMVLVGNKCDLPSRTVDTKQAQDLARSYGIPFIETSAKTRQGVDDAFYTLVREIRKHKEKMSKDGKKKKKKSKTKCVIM
Sequence of KRAS G12S (P62937 whole entry): as the sequence (P62937 whole entry) above
Sequence of KRAS G13D (P01116 other isoform, or with tags, fused parts or gaps G13D): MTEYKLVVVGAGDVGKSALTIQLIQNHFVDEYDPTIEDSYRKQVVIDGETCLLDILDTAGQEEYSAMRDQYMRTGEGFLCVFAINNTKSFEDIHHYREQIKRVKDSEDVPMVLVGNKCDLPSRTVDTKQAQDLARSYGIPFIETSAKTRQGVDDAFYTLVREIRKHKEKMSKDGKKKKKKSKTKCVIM
Sequence of KRAS G13D (P62937 whole entry): as the sequence (P62937 whole entry) above
Sequence of KRAS G12V (P01116 other isoform, or with tags, fused parts or gaps G12V): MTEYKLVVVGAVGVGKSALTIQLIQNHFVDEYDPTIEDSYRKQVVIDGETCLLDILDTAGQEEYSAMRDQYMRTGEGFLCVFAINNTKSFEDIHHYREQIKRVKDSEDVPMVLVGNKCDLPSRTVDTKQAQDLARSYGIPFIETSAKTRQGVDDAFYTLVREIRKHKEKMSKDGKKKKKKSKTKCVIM
Sequence of KRAS G12V (P62937 whole entry): as the sequence (P62937 whole entry) above

| IC50 [1] [nM] | EC50 [3] [nM] | IC50 [4] [nM] | IC50 [5] [nM] | IC50 [6] [nM] | IC50 [7] [nM] | IC50 [8] [nM] | IC50 [9] [nM] | IC50 [10] [nM] | IC50 [11] [nM] | SMILES | IC50 [2] [nM] |
| --- | --- | --- | --- | --- | --- | --- | --- | --- | --- | --- | --- |
| 10 to 100 | < 5000 |  |  |  |  |  |  |  |  | CCn1c(-c2cccnc2[C@H](C)OC)c2c3cc(ccc31)-c1csc(n1)C[C@H](NC(=O)[C@H](C(C)C)N(C)C(=O)N1CC[C@@H](O)C1)C(=O)N1CCC[C@H](N1)C(=O)OCC(C)(C)C2 [Compound A376] | 10 to 100 |
|  | < 5000 | 10 to 100 | 10 to 100 | 10 to 100 | 10 to 100 | 10 to 100 | 10 to 100 | 10 to 100 | 10 to 100 | CCn1c(-c2cccnc2[C@H](C)OC)c2c3cc(ccc31)-c1cc(O)cc(c1)C[C@H](NC(=O)[C@H](C(C)C)N(C)C(=O)[C@H]1CCN(C(=O)[C@]3(C)CCCN3)C1)C(=O)N1CCC[C@H](N1)C(=O)OCC(C)(C)C2 [Compound A380] | 1000 to 10000 |
|  | < 5000 | 100 to 1000 | 100 to 1000 | 100 to 1000 | 100 to 1000 | 100 to 1000 | 10 to 100 | 100 to 1000 | 100 to 1000 | CCn1c(-c2cccnc2[C@H](C)OC)c2c3cc(ccc31)-c1cc(O)cc(c1)C[C@H](NC(=O)[C@H](C(C)C)N(C)C(=O)[C@H]1CCCC[C@@H]1N)C(=O)N1CCC[C@H](N1)C(=O)OCC(C)(C)C2 [Compound A394] | 1000 to 10000 |
|  | < 5000 | 10 to 100 | 10 to 100 | 10 to 100 | 10 to 100 | 100 to 1000 | 10 to 100 | 10 to 100 | 10 to 100 | CCn1c(-c2cccnc2[C@H](C)OC)c2c3cc(ccc31)-c1cc(O)cc(c1)C[C@H](NC(=O)[C@H](C(C)C)N(C)C(=O)[C@H]1CCCC[C@H]1N)C(=O)N1CCC[C@H](N1)C(=O)OCC(C)(C)C2 [Compound A419] | 100 to 1000 |
| 10 to 100 | < 5000 |  |  |  |  |  |  |  |  | CCn1c(-c2cccnc2[C@H](C)OC)c2c3cc(ccc31)-c1csc(n1)C[C@H](NC(=O)[C@H](C(C)C)N(C)C(=O)N1CC([C@@H](C)N(C)C)C1)C(=O)N1CCC[C@H](N1)C(=O)OCC(C)(C)C2 [Compound A458] | 10 to 100 |
| 10 to 100 | < 5000 |  |  |  |  |  |  |  |  | CCn1c(-c2cccnc2[C@H](C)OC)c2c3cc(ccc31)-c1csc(n1)C[C@H](NC(=O)[C@H](C(C)C)N(C)C(=O)N1CCC[C@@H](N(C)C)C1)C(=O)N1CCC[C@H](N1)C(=O)OCC(C)(C)C2 [Compound A531] | 10 to 100 |
| 10 to 100 | < 5000 |  |  |  |  |  |  |  |  | CCn1c(-c2cccnc2[C@H](C)OC)c2c3cc(ccc31)-c1csc(n1)C[C@H](NC(=O)[C@H](C(C)C)N(C)C(=O)N(C)[C@@H]1CCCN(C)C1)C(=O)N1CCC[C@H](N1)C(=O)OCC(C)(C)C2 [Compound A587] |  |
| 10 to 100 | < 5000 |  |  |  |  |  |  |  |  | CCn1c(-c2cccnc2[C@H](C)OC)c2c3cc(ccc31)-c1csc(n1)C[C@H](NC(=O)[C@H](C(C)C)N(C)C(=O)N1CCN(C(=O)[C@H]3CCCN3C)CC1)C(=O)N1CCC[C@H](N1)C(=O)OCC(C)(C)C2 [Compound A595] | 100 to 1000 |
